Source: PMC2693028 (ChemMedChem, 2008)
Values after ≈ are worked out from the molar mass of the structure shown. Values joined by “and” are separate entries in the source; they are usually repeats but may differ in a detail not shown here. Equal entries are not always repeated. Where two headings read alike, the source gives them in different places.

Experiments:
[1] = biological target: Enoyl reducase (ENR) from Bacillus anthracis (BaENR) (Bacillus anthracis, UniProt A0A6L8PBX8); experiment: biochemical; settings: for inhibition at 1 µM: read-out: % inhibition at 1μM
Sequence of Enoyl reducase (ENR) from Bacillus anthracis (BaENR) (A0A6L8PBX8 1-256): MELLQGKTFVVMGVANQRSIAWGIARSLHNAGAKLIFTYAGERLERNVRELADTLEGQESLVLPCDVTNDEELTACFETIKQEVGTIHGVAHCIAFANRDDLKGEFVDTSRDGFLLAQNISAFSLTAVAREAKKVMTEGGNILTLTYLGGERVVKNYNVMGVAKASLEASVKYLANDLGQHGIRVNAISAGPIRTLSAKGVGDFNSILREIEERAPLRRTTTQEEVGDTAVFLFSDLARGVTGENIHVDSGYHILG

[2] = test system: ΔANR B. anthracis; experiment: microbe, parasite or virus in culture; format: cell-based, Bacillus anthracis
[3] = test system: Sterne strain B. anthracis; experiment: microbe, parasite or virus in culture; format: cell-based, Bacillus anthracis; settings: Bacillus anthracis
[4] = test system: Staphylococcus aureus (ATCC strain 29213); experiment: microbe, parasite or virus in culture; format: cell-based; settings: ATCC29213|MSSA
[5] = test system: methicillin–resistant Staphylococcus aureus (ATCC strain 43300); experiment: microbe, parasite or virus in culture; format: cell-based; settings: Staphylococcus aureus, ATCC43300|MRSA
[6] = test system: Enterococcus fecalis (ATCC strain 29212); experiment: microbe, parasite or virus in culture; format: cell-based; settings: Enterococcus, ATCC29212
[7] = test system: vancomycin–resistant Enterococcus (VRE) (ATCC strain 51299); experiment: microbe, parasite or virus in culture; format: cell-based; settings: Enterococcus, ATCC51299|VRE
[8] = test system: Listeria monocytogenes (10403S); experiment: microbe, parasite or virus in culture; format: cell-based; settings: Listeria monocytogenes
[9] = test system: Pseudomonas aeruginosa (ATCC strain 27853); experiment: microbe, parasite or virus in culture; format: cell-based; settings: ATCC27853
[10] = test system: Klebsiella pneumoniae (ATCC strain 700603); experiment: microbe, parasite or virus in culture; format: cell-based; settings: Klebsiella pneumoniae, ATCC700603
[11] = test system: Escherchia coli (ATCC strain 25922); experiment: microbe, parasite or virus in culture; format: cell-based; settings: Escherichia coli, ATCC25922

Row | Compound | MIC ([2]; Bacillus anthracis) [µg/mL] | IC50 ([1]; IC50) | inhibition at 1 µM [1] [%] | also measured
1 | 3-[3-(2-Hydroxy-4-propylphenoxy)phenyl]propionic acid [Compound 50] |  |  |  | % inhibition at 1μM [1]: 17.9%; MIC [2]: 14.9 µg/mL
2 | O=C(O)c1cn(C2CC2)c2cc(N3CCNCC3)c(F)cc2c1=O [Cipro, reference compound] | 0.1 (≈ 0.302 µM) |  |  | MIC [3]: 0.1 µg/mL (≈ 0.302 µM); MIC [4]: 0.4 µg/mL (≈ 1.21 µM); MIC [5]: 0.5 ± 0.2 µg/mL (≈ 1.51 µM); MIC [6]: 0.7 ± 0.1 µg/mL (≈ 2.11 µM); MIC [7]: 0.6 ± 0.2 µg/mL (≈ 1.81 µM); MIC [8]: 0.9 ± 0.3 µg/mL (≈ 2.72 µM); MIC [9]: 0.3 ± 0.1 µg/mL (≈ 0.905 µM); MIC [10]: 0.5 ± 0.1 µg/mL (≈ 1.51 µM); MIC [11]: 0.1 µg/mL (≈ 0.302 µM)
3 | Oc1ccc(Oc2ccccc2)c(O)c1 [Compound 1, 4-Phenoxybenzene-1,3-diol] | 64 (≈ 317 µM) | 6.3 ± 0.4 µM |  | 
4 | O=[N+]([O-])c1ccc(Oc2ccccc2)c(O)c1 [Compound 2, 5-Nitro-2-phenoxyphenol] | 5.8 (≈ 25.1 µM) | > 50 µM |  | 
5 | Oc1ccc(Oc2ccc(Cl)cc2O)cc1 [Compound 3, 5-Chloro-2-(4-hydroxyphenoxy)phenol] | > 64 |  | 2.6 | 
6 | O=[N+]([O-])c1ccc(Oc2ccc(Cl)cc2O)cc1 [Compound 4, 5-Chloro-2-(4-nitrophenoxy)phenol] | 3.3 (≈ 12.4 µM) |  |  | 
7 | O=[N+]([O-])c1ccccc1Oc1ccc(Cl)cc1O [Compound 5, 5-Chloro-2-(2-nitrophenoxy)phenol] | 13.3 (≈ 50.1 µM) | 7.7 ± 0.7 µM |  | 
8 | Oc1cc(Cl)ccc1Oc1ccc(-c2ccccc2)cc1 [Compound 7, 2-(Biphenyl-4-yloxy)-5-chlorophenol] | 1.9 (≈ 6.4 µM) | > 6.25 µM |  | 
9 | CCCc1ccc(Oc2ccc([N+](=O)[O-])cc2)c(O)c1 [Compound 8, 2-(4-Nitrophenoxy)-5-propylphenol] | 3.4 (≈ 12.4 µM) | 1.1 ± 0.1 µM |  | 
10 | CCCc1ccc(Oc2cccc([N+](=O)[O-])c2)c(O)c1 [Compound 9, 2-(3-Nitrophenoxy)-5-propylphenol] | 1.7 (≈ 6.22 µM) | > 0.8 µM |  | 
11 | CCCc1ccc(Oc2ccc([N+](=O)[O-])cc2[N+](=O)[O-])c(O)c1 [Compound 10, 2-(2,4-Dinitrophenoxy)-5-propylphenol] | 4 (≈ 12.6 µM) | 3.6 ± 0.8 µM |  | 
12 | CCCc1ccc(Oc2ccc(C#N)cc2Cl)c(O)c1 [Compound 12, 3-Chloro-4-(2-hydroxy-4-propylphenoxy)benzonitrile] | 1.8 (≈ 6.26 µM) | > 0.8 µM |  | 
13 | CCCc1ccc(Oc2cccc(CCO)c2)c(O)c1 [Compound 13, 2-[3-(2-Hydroxy-ethyl)phenoxy]-5-propylphenol] | 1.7 (≈ 6.24 µM) |  |  | IC50 [1]: 6 ± 1.5 µM
14 | O=C(O)c1cc(Cl)ccc1Oc1ccccc1 [Compound 14, 5-Chloro-2-phenoxybenzoic acid] |  |  | 0 | 
15 | CCCc1ccc(Oc2ccc(C(N)=O)cc2Cl)c(O)c1 [Compound 15, 3-Chloro-4-(2-hydroxy-4-propylphenoxy)benzamide] | 30.6 (≈ 100 µM) | 1.1 ± 0.1 µM |  | 
16 | OCc1cc(Cl)ccc1Oc1ccccc1 [Compound 16, 5-Chloro-2-phenoxyphenylmethanol] |  |  | 1.8 | 
17 | NC(=O)c1cc(Cl)ccc1Oc1ccccc1 [Compound 17, 5-Chloro-2-phenoxybenzamide] |  |  | 0 | 
18 | CC(=O)Nc1ccc(Oc2ccc(Cl)cc2O)cc1 [Compound 18, N-[4-(4-Chloro-2-hydroxy-phenoxy)phenyl]acetamide] | 111 (≈ 400 µM) |  | 1.6 | 
19 | CC(=O)Nc1ccccc1Oc1ccc(Cl)cc1O [Compound 19, N-[2-(4-Chloro-2-hydroxy-phenoxy)phenyl]acetamide] | 111 (≈ 400 µM) |  | 0 | 
20 | Nc1ccc(Oc2ccc(Cl)cc2O)cc1 [Compound 20, 2-(4-Aminophenoxy)-5-chlorophenol] | 12 (≈ 50.9 µM) | 7 µM and 7.1 µM |  | 
21 | CCCc1ccc(Oc2ccc(N)cc2)c(O)c1 [Compound 21, 2-(4-Aminophenoxy)-5-propylphenol] | > 97 | 8.8 ± 1 µM |  | 
22 | Cc1ccc(S(=O)(=O)Nc2ccc(Oc3ccc(Cl)cc3O)cc2)cc1 [Compound 22, 4-(4-Chloro-2-hydroxyphenoxy)-1-(4 methylphenylsulphonamido) benzene] | 4.9 (≈ 12.6 µM) | > 12 µM |  | 
23 | CC(=O)Nc1ccc(Oc2ccc(Cl)cc2O)cn1 [Compound 24, N-[5-(4-Chloro-2-hydroxyphenoxy)-pyridin-2-yl]acetamide] | > 112 | 4.1 µM |  | 
24 | OCC(O)Cc1ccc(Oc2ccccc2)c(O)c1 (stereo not shown) [Compound 26, 3-(3-Hydroxy-4-phenoxyphenyl)propane-1,2-diol] | > 104 |  | 9.8 | 

Row | Compound | MIC ([2]; Bacillus anthracis) [µg/mL] | IC50 ([1]; IC50) | inhibition at 1 µM [1] [%] | also measured
25 | CCCc1ccc(Oc2ccccc2)c(O)c1 [Compound 27, 2-Phenoxy-5-propylphenol] | 22.8 (≈ 99.9 µM) | > 0.8 µM |  | 
26 | OCc1ccc(Oc2ccccc2)c(O)c1 [Compound 28, 5-Hydroxymethyl-2-phenoxyphenol] | 43 (≈ 199 µM) |  | 5 | 
27 | CCCC(C)NCc1ccc(Oc2ccccc2)c(O)c1 (stereo not shown) [Compound 29, 5-[(1-Methyl-butylamino)methyl]-2-phenoxyphenol] | > 109 |  | 0 | 
28 | Oc1cc(CN2CCCCC2)ccc1Oc1ccccc1 [Compound 30, 2-Phenoxy-5-piperidin-1-ylmethylphenol] | > 113 |  | 0 | 
29 | Oc1cc(CNCc2ccccc2)ccc1Oc1ccccc1 [Compound 31, 5-(Benzylaminomethyl)-2-phenoxyphenol] | > 122 |  | 7.9 | 
30 | Oc1cc(Cl)ccc1Oc1ccc(Oc2ccc(Cl)cc2O)cc1 [Compound 32, 2-[4-(2-Hydroxy-4-Chlorophenoxy)phenoxy]-5-chlorophenol] | > 145 |  | 15.5 | 
31 | Oc1cc(Cl)ccc1Oc1cccc(Oc2ccc(Cl)cc2O)c1 [Compound 33, 2-[3-(2-Hydroxy-4-chlorophenoxy)phenoxy]-5-chlorophenol] | 2.3 (≈ 6.33 µM) |  | 9.9 | 
32 | CCCc1ccc(Oc2cccc(Oc3ccc(CCC)cc3O)c2)c(O)c1 [Compound 34, 2-[3-(2-Hydroxy-4-propylphenoxy)phenoxy]-5-Propylphenol] | 1.2 (≈ 3.17 µM) |  | 20.6 | 
33 | CCCc1ccc(Oc2ccc(Oc3ccc(CCC)cc3O)cc2)c(O)c1 [Compound 35, 2-[4-(2-Hydroxy-4-propylphenoxy)phenoxy]-5-propylphenol] | > 151 |  | 10 | 
34 | CCCc1ccc(Oc2cccc(-c3ccccc3)c2)c(O)c1 [Compound 36, 2-(Biphenyl-3-yloxy)-5-propylphenol] | 1.9 (≈ 6.24 µM) |  |  | IC50 [1]: 0.5 ± 0.1 µM
35 | CCCc1ccc(Oc2cccc(C(=O)OC)c2)c(O)c1 [Compound 37, 3-(2-Hydroxy-4-propylphenoxy)benzoic acid methyl ester] | 3.6 (≈ 12.6 µM) | 2 ± 0.3 µM |  | 
36 | CCCc1ccc(Oc2cccc(C(=O)O)c2)c(O)c1 [Compound 39, 3-(2-Hydroxy-4-propylphenoxy)benzoic acid] | 6.8 (≈ 25 µM) |  | 9.2 | 
37 | CCCc1ccc(Oc2ccc(C(C)=O)cc2)c(O)c1 [Compound 40, 1-[4-(2-Hydroxy-4-propylphenoxy)phenyl]ethanone] | 13.5 (≈ 49.9 µM) | 0.8 ± 0.1 µM |  | 
38 | CCCc1ccc(Oc2ccc(SC)cc2)c(O)c1 [Compound 41, 2-(4-Methylsulfanylphenoxy)-5-propylphenol] | 13.5 (≈ 49.2 µM) | 0.6 µM |  | 
39 | CCCc1ccc(Oc2ccc(C(C)O)cc2)c(O)c1 (stereo not shown) [Compound 42, 2-[4-(1-Hydroxyethyl)phenoxy]-5-propylphenol] | 54.5 (≈ 200 µM) |  | 17.1 | 
40 | CCCc1ccc(Oc2ccc([S+](C)[O-])cc2)c(O)c1 (stereo not shown) [Compound 43, 2-(4-Methanesulfinylphenoxy)-5-propylphenol] | 116 (≈ 399 µM) | 3.6 ± 0.3 µM |  | 
41 | CCCc1ccc(Oc2ccc(S(C)(=O)=O)cc2)c(O)c1 [Compound 44, 2-(4-Methanesulfonylphenoxy)-5-propylphenol] | 61.3 (≈ 200 µM) | 2.2 ± 0.3 µM |  | 
42 | CCCc1ccc(Oc2cccc(N(C)C)c2)c(O)c1 [Compound 45, 2-(3-Dimethylaminophenoxy)-5-propylphenol] | 13.6 (≈ 50.1 µM) |  | 12.6 | 
43 | CCCc1ccc(Oc2cccc(C(F)(F)F)c2)c(O)c1 [Compound 46, 5-Propyl-2-(3-trifluoromethylphenoxy)phenol] | 7.4 (≈ 25 µM) |  |  | IC50 [1]: 1.24 µM
44 | CCCc1ccc(Oc2cccc(C=CC(=O)OC)c2)c(O)c1 [Compound 48, 3-[3-(2-Hydroxy-4-propylphenoxy)phenyl]acrylic acid methyl ester] | 2 (≈ 6.4 µM) | > 6.25 µM |  | 
45 | CCCc1ccc(Oc2cccc(CCC(=O)OC)c2)c(O)c1 [Compound 49, 3-[3-(2-Hydroxy-4-propylphenoxy)phenyl]propionic acid methyl ester] | 7.9 (≈ 25.1 µM) | 7.5 ± 1.9 µM |  | 
46 | CCCc1ccc(Oc2cccc(CCC(=O)O)c2)c(O)c1 [Compound 51, 3-[3-(2-Hydroxy-4-propylphenoxy)phenyl]propionic acid] | 60.1 (≈ 200 µM) |  | 17.6 | 
47 | Clc1ccc(Oc2ccc(Cl)cc2Oc2cccnc2)c(Cl)c1 [Compound 52, 3-[5-Chloro-2-(2,4-dichlorophenoxy)phenoxy]pyridine] |  |  | 0.5 | 
